Consider 23 compounds from patent publication US9127001B2, “Substituted 4,5,6,7-tetrahydro-1H-pyrazolo[4,3-c]pyridines, their use as medicament, and pharmaceutical preparations comprising them” (Sanofi, priority 2011, dated 2015).

The experiment concerns the target Human TASK-1 channels (Homo sapiens (Human), UniProt O14649). As to the kind of experiment: Activity on the TASK-1 channel in Xenopus oocytes (two-microelectrode voltage clamp). The format is cell-based. To be noted: for IC50: human TASK-1 expressed in Xenopus oocytes, currents during pulses to 40 mV, room temperature. On the procedure: Human TASK-1 channels were expressed in Xenopus oocytes. For this purpose, oocytes were isolated from Xenopus laevis and defoliculated. Subsequently, TASK-1-encoding RNA synthesized in vitro was injected into oocytes. […] Data were acquired and analyzed using a TEC-10cx amplifier (NPI Electronic, Tamm, Germany) connected to an ITC-16 interface (Instrutech Corp., Long Island, USA) and Pulse software (HEKA Elektronik, Lambrecht, Germany). […] Oocytes were continuously superfused with ND96 buffer containing: NaCl 96 mM, KCl 2 mM, CaCl2 1.8 mM, MgCl2 1 mM, HEPES 5 mM (pH adjusted to 7.4 with NaOH). All experiments were performed at room temperature.
Test substances were consecutively added to the bath solution at rising concentrations. […] IC50 values were obtained by fitting the data to the general dose-response equation.

Human TASK-1 channels, sequence (O14649 whole entry, the tested form may be a part): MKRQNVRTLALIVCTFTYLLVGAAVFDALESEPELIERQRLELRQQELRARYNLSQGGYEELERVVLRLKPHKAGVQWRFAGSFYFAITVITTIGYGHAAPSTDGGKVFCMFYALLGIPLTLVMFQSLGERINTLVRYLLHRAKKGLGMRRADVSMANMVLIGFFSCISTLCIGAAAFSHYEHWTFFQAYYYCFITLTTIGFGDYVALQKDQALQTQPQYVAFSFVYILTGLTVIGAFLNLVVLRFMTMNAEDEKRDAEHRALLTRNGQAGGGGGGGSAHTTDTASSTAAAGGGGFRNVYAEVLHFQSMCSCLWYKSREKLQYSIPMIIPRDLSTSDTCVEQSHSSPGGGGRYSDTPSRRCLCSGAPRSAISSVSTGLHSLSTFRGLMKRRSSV

Broadly, the inhibition is the drop in the measured response relative to a control, in per cent. Higher therefore signals a response far below the control. For the compound `CC(c1ccc(F)cc1)n1nc(-c2ccc(F)cc2)c2c1CCN(C(=O)NC(C)(C)C)C2` (single isomer, unassigned) [Example 11f, 3-(4-Fluoro-phenyl)-1-[1-(4-fluoro-phenyl)-ethyl]-1,4,6,7-tetrahydro-pyrazolo[4,3-c]pyridine-5-carboxylic acid tert-butylamide], the inhibition at 5 µM was 58%.

Broadly, the IC50 is the midpoint of a concentration-inhibition curve. A high value points to weaker potency in that assay. As to `CC(c1ccc(F)cc1)n1nc(-c2ccc(F)cc2)c2c1CCN(C(=O)N1CCOCC1)C2` (single isomer, unassigned) [Example 12b, {3-(4-Fluoro-phenyl)-1-[1-(4-fluoro-phenyl)-ethyl]-1,4,6,7-tetrahydro-pyr-azolo[4,3-c]pyridin-5-yl}-morpholin-4-yl-methanone], the IC50 was found to be 511 nM.

Turning to `CC(c1ccc(F)cc1)n1nc(-c2ccc(F)cc2)c2c1CCN(C(=O)N1CC[C@H](O)C1)C2` (single isomer, unassigned) [Example 12c], the IC50 was found to be 734 nM.

The compound `CC(=O)N1CCc2c(c(-c3ccc(F)cc3)nn2C(C)c2ccc(F)cc2)C1` (single isomer, unassigned; (+)) [Example 6be, (+)-1-{3-(4-Fluoro-phenyl)-1-[1-(4-fluoro-phenyl)-ethyl]-1,4,6,7-tetrahydro-pyrazolo[4,3-c]pyridin-5-yl}-ethanone] registered an IC50 of 500 nM.

In the case of `CC(=O)N1CCc2c(c(-c3ccc(F)cc3)nn2C(C)c2ccc(F)cc2)C1` (single isomer, unassigned; (-)) [Example 6bf, (−)-1-{3-(4-Fluoro-phenyl)-1-[1-(4-fluoro-phenyl)-ethyl]-1,4,6,7-tetrahydro-pyrazolo[4,3-c]pyridin-5-yl}-ethanone], 500 nM corresponded to half-maximal inhibition (IC50).

Regarding `CC(=O)N1CCc2c(c(-c3ncccc3C)nn2Cc2ccc(F)cc2F)C1` [Example 6ab, 1-[1-(2,4-Difluoro-benzyl)-3-(3-methyl-pyridin-2-yl)-1,4,6,7-tetrahydro-pyrazolo[4,3-c]pyridin-5-yl]-ethanone], the inhibition at 5 µM was 76%.

On to `COc1ccnc(-c2nn(Cc3ccc(F)cc3F)c3c2CN(C(C)=O)CC3)c1` [Example 6ac, 1-[1-(2,4-Difluoro-benzyl)-3-(4-methoxy-pyridin-2-yl)-1,4,6,7-tetrahydro-pyrazolo[4,3-c]pyridin-5-yl]-ethanone], for which the inhibition at 5 µM was 80%.

In turn, `CC(=O)N1CCc2c(c(-c3cccc(C(F)(F)F)c3)nn2Cc2csc(C)n2)C1` [Example 6ad, 1-[1-(2-Methyl-thiazol-4-ylmethyl)-3-(3-trifluoromethyl-phenyl)-1,4,6,7-tetrahydro-pyrazolo[4,3-c]pyridin-5-yl]-ethanone] returned an inhibition at 5 µM of 86%.

On to `CC(=O)N1CCc2c(c(-c3cccc(C(F)(F)F)c3)nn2Cc2nccs2)C1` [Example 6ae, 1-[1-Thiazol-2-ylmethyl-3-(3-trifluoromethyl-phenyl)-1,4,6,7-tetrahydro-pyrazolo[4,3-c]pyridin-5-yl]-ethanone], for which the inhibition at 5 µM was 84%.

For `CC(=O)N1CCc2c(c(-c3cccs3)nn2Cc2ccc(F)cc2F)C1` [Example 6af, 1-[1-(2,4-Difluoro-benzyl)-3-thiophen-2-yl-1,4,6,7-tetrahydro-pyrazolo[4,3-c]pyridin-5-yl]-ethanone], the inhibition at 5 µM was found to be 72%.

In turn, `CC(=O)N1CCc2c(c(-c3cccc(C)c3)nn2Cc2ccc(Cl)s2)C1` [Example 6ag, 1-[1-(5-Chloro-thiophen-2-ylmethyl)-3-m-tolyl-1,4,6,7-tetrahydro-pyrazolo[4,3-c]pyridin-5-yl]-ethanone] yielded an inhibition at 5 µM of 75%.

Regarding `CC(=O)N1CCc2c(c(-c3cccc(C(F)(F)F)c3)nn2Cc2ccc(Cl)s2)C1` [Example 6ah, 1-[1-(5-Chloro-thiophen-2-ylmethyl)-3-(3-trifluoromethyl-phenyl)-1,4,6,7-tetrahydro-pyrazolo[4,3-c]pyridin-5-yl]-ethanone], the inhibition at 5 µM stood at 53%.

For `CC(=O)N1CCc2c(c(-c3cccc(C#N)c3)nn2Cc2ccc(Cl)s2)C1` [Example 6ai, 3-[5-Acetyl-1-(5-chloro-thiophen-2-ylmethyl)-4,5,6,7-tetrahydro-1H-pyrazolo[4,3-c]pyridin-3-yl]-benzonitrile], the inhibition at 5 µM was determined as 79%.

As for `CC(=O)N1CCc2c(c(-c3cccc(Cl)c3)nn2Cc2ccc(Cl)s2)C1` [Example 6aj, 1-[3-(3-Chloro-phenyl)-1-(5-chloro-thiophen-2-ylmethyl)-1,4,6,7-tetrahydro-pyrazolo[4,3-c]pyridin-5-yl]-ethanone], the inhibition at 5 µM turned out to be 76%.

`CC(=O)N1CCc2c(c(-c3ccc(Cl)s3)nn2Cc2ccc(F)cc2F)C1` [Example 6ak, 1-[3-(5-Chloro-thiophen-2-yl)-1-(2,4-difluoro-benzyl)-1,4,6,7-tetrahydro-pyrazolo[4,3-c]pyridin-5-yl]-ethanone] yielded an IC50 of 270 nM.

Compound `CC(=O)N1CCc2c(c(-c3ccsc3)nn2Cc2ccc(F)cc2F)C1` [Example 6al, 1-[1-(2,4-Difluoro-benzyl)-3-thiophen-3-yl-1,4,6,7-tetrahydro-pyrazolo[4,3-c]pyridin-5-yl]-ethanone] had an inhibition at 5 µM of 75%.

For `CC(=O)N1CCc2c(c(-c3cccc(C(F)(F)F)c3)nn2Cc2ccc(C#N)cc2)C1` [Example 6am, 4-[5-Acetyl-3-(3-trifluoromethyl-phenyl)-4,5,6,7-tetrahydro-pyrazolo[4,3-c]pyridin-1-ylmethyl]-benzonitrile], the IC50 came to 114 nM.

Consider `CC(=O)N1CCc2c(c(-c3cccc(C#N)c3)nn2C(C)c2ccc(F)cc2)C1` (centres unmarked) [Example 6an, 3-{5-Acetyl-1-[1-(4-fluoro-phenyl)-ethyl]-4,5,6,7-tetrahydro-1H-pyrazolo[4,3-c]pyridin-3-yl}-benzonitrile], for which 187 nM corresponded to half-maximal inhibition (IC50).

As for `CC(=O)N1CCc2c(c(-c3ccc(F)cc3)nn2C(c2ccc(F)cc2)C2CC2)C1` (centres unmarked) [Example 6ao, 1-[1-[Cyclopropyl-(4-fluoro-phenyl)-methyl]-3-(4-fluoro-phenyl)-1,4,6,7-tetrahydro-pyrazolo[4,3-c]pyridin-5-yl]-ethanone], half-maximal inhibition (IC50) required 258 nM.

`CC(=O)N1CCc2c(c(-c3cccc(OC(F)(F)F)c3)nn2Cc2ccc(F)cc2F)C1` [Example 6ap, 1-[1-(2,4-Difluoro-benzyl)-3-(3-trifluoromethoxy-phenyl)-1,4,6,7-tetrahydro-pyrazolo[4,3-c]pyridin-5-yl]-ethanone]: the IC50 came to 285 nM.

`CC(=O)N1CCc2c(c(-c3ccc(F)cc3)nn2Cc2c(F)cccc2F)C1` [Example 6aq, 1-[1-(2,6-Difluoro-benzyl)-3-(4-fluoro-phenyl)-1,4,6,7-tetrahydro-pyrazolo[4,3-c]pyridin-5-yl]-ethanone] had an IC50 of 359 nM.

For the compound `CC(=O)N1CCc2c(c(-c3ccc(F)cc3)nn2C(C)c2ccc(F)cc2)C1` (centres unmarked) [Example 6ar, 1-{3-(4-Fluoro-phenyl)-1-[1-(4-fluoro-phenyl)-ethyl]-1,4,6,7-tetrahydro-pyrazolo[4,3-c]pyridin-5-yl}-ethanone], the IC50 was 552 nM.

In the case of `CC(=O)N1CCc2c(c(-c3ccc(F)cc3)nn2Cc2ccc(C(F)(F)F)cc2)C1` [Example 6as, 1-[3-(4-Fluoro-phenyl)-1-(4-trifluoromethyl-benzyl)-1,4,6,7-tetrahydro-pyrazolo[4,3-c]pyridin-5-yl]-ethanone], half-maximal inhibition (IC50) was put at 659 nM.
